# ChEMBL document CHEMBL1909046, “DrugMatrix in vitro pharmacology data”
# Molecular target: Cytochrome P450 2E1 (Homo sapiens, UniProt P05181); also: in other assays of this panel Not Active means under 50% inhibition at 10 µM
# Assay: not given
# Details: bti-tn-5b1-4
# Cytochrome P450 2E1, sequence (P05181 whole entry): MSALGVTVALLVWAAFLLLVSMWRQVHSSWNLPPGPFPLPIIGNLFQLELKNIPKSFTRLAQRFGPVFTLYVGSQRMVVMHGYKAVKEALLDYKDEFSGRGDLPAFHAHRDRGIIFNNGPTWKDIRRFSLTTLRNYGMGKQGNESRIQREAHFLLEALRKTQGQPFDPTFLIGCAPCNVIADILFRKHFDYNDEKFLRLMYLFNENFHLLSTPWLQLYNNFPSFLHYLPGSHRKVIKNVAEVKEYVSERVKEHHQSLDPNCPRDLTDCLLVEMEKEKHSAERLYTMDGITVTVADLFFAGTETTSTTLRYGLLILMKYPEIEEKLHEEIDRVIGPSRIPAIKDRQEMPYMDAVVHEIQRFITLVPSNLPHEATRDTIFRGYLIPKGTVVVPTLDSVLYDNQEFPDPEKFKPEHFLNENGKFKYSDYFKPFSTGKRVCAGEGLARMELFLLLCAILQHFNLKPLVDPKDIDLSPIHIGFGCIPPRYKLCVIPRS
Compound,IC50,Ki
COc1cc(N)nc2[nH]c(-c3ccc(F)cc3)c(-c3ccncc3)c12,Not Active,Not Active
CNS(=O)(=O)Cc1ccc2[nH]cc(CCN(C)C)c2c1,Not Active,Not Active
CCCc1nn(C)c2c(=O)[nH]c(-c3cc(S(=O)(=O)N4CCN(C)CC4)ccc3OCC)nc12,Not Active,Not Active
COc1ccc(/C=C/C(=O)Nc2ccccc2C(=O)O)cc1OC,Not Active,Not Active
CCOC(N)=O,Not Active,Not Active
CC(=O)Nc1nnc(S(N)(=O)=O)s1 [ACETAZOLAMIDE],Not Active,Not Active
CC1=C(CC(=O)O)c2cc(F)ccc2/C1=C\c1ccc(S(C)(=O)=O)cc1 [EXISULIND],Not Active,Not Active
CC(C)OC(=O)C(C)(C)Oc1ccc(C(=O)c2ccc(Cl)cc2)cc1 [FENOFIBRATE],Not Active,Not Active
OCCN1CCN(CCCN2c3ccccc3Sc3ccc(C(F)(F)F)cc32)CC1 [FLUPHENAZINE],Not Active,Not Active
CN1C2CCCC1CC(NC(=O)c1nn(C)c3ccccc13)C2 (stereo unspecified) [GRANISETRON],Not Active,Not Active
Nc1nc2c(c(=O)[nH]1)N(C=O)C(CNc1ccc(C(=O)N[C@@H](CCC(=O)O)C(=O)O)cc1)CN2 (stereo partly specified) [LEUCOVORIN],Not Active,Not Active

# Molecular target: Beta-3 adrenergic receptor (Homo sapiens, UniProt P13945)
# Sequence (P13945 whole entry): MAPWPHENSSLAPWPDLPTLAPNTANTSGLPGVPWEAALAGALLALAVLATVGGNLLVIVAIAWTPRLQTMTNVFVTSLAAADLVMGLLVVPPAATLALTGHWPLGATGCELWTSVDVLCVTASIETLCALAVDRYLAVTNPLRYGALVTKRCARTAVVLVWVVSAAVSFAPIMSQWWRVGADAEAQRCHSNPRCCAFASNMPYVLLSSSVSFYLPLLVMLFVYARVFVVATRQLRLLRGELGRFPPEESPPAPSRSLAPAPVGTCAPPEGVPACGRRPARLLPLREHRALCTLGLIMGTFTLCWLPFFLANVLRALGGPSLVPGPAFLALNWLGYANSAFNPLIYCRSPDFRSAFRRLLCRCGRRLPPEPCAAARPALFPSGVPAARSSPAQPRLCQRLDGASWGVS
# Assay: DRUGMATRIX: Adrenergic beta3 radioligand binding (ligand: [125I] Cyanopindolol)
# Assay type: cell membranes, HEK293, Membrane
# Details: Not Active = under 50% inhibition at 10 µM; read-out: IC50
row,Compound,IC50 [µM]
1,CC(C)OC(=O)C(C)(C)Oc1ccc(C(=O)c2ccc(Cl)cc2)cc1 [FENOFIBRATE],124
2,OCCN1CCN(CCCN2c3ccccc3Sc3ccc(C(F)(F)F)cc32)CC1 [FLUPHENAZINE],29.5

# Same assay, conditions: Not Active = under 50% inhibition at 10 µM; read-out: Ki
row,Compound,Ki [µM]
1,CC(C)OC(=O)C(C)(C)Oc1ccc(C(=O)c2ccc(Cl)cc2)cc1 [FENOFIBRATE],93
2,OCCN1CCN(CCCN2c3ccccc3Sc3ccc(C(F)(F)F)cc32)CC1 [FLUPHENAZINE],22.1

# Same assay, conditions: hek293; Not Active = under 50% inhibition at 10 µM
row,Compound,IC50
1,COc1cc(N)nc2[nH]c(-c3ccc(F)cc3)c(-c3ccncc3)c12,Not Active
2,CNS(=O)(=O)Cc1ccc2[nH]cc(CCN(C)C)c2c1,Not Active
3,CCCc1nn(C)c2c(=O)[nH]c(-c3cc(S(=O)(=O)N4CCN(C)CC4)ccc3OCC)nc12,Not Active
4,COc1ccc(/C=C/C(=O)Nc2ccccc2C(=O)O)cc1OC,Not Active
5,CCOC(N)=O,Not Active
6,CC(=O)Nc1nnc(S(N)(=O)=O)s1 [ACETAZOLAMIDE],Not Active
7,CC1=C(CC(=O)O)c2cc(F)ccc2/C1=C\c1ccc(S(C)(=O)=O)cc1 [EXISULIND],Not Active
8,CN1C2CCCC1CC(NC(=O)c1nn(C)c3ccccc13)C2 (stereo unspecified) [GRANISETRON],Not Active
9,Nc1nc2c(c(=O)[nH]1)N(C=O)C(CNc1ccc(C(=O)N[C@@H](CCC(=O)O)C(=O)O)cc1)CN2 (stereo partly specified) [LEUCOVORIN],Not Active

# Molecular target: Beta-1 adrenergic receptor (Homo sapiens, UniProt P08588)
# Sequence (P08588 whole entry): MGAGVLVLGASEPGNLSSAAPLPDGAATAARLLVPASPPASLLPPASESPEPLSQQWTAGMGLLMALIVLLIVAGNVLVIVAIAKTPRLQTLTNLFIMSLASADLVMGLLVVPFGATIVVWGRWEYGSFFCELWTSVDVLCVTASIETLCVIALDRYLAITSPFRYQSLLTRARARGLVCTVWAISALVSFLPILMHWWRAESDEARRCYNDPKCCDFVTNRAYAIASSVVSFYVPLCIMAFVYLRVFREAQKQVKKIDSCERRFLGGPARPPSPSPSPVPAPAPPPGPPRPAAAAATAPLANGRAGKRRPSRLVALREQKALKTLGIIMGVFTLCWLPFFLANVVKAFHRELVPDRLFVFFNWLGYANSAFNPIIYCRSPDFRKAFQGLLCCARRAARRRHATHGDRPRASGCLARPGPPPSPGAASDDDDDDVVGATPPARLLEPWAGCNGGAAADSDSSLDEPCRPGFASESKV
# Assay: DRUGMATRIX: Adrenergic beta1 radioligand binding (ligand: [125I] Cyanopindolol)
# Assay type: cell membranes, CHO-K1, Membrane
# Details: cho-k1; Not Active = under 50% inhibition at 10 µM
row,Compound,IC50
1,COc1cc(N)nc2[nH]c(-c3ccc(F)cc3)c(-c3ccncc3)c12,Not Active
2,CNS(=O)(=O)Cc1ccc2[nH]cc(CCN(C)C)c2c1,Not Active
3,CCCc1nn(C)c2c(=O)[nH]c(-c3cc(S(=O)(=O)N4CCN(C)CC4)ccc3OCC)nc12,Not Active
4,COc1ccc(/C=C/C(=O)Nc2ccccc2C(=O)O)cc1OC,Not Active
5,CCOC(N)=O,Not Active
6,CC(=O)Nc1nnc(S(N)(=O)=O)s1 [ACETAZOLAMIDE],Not Active
7,CC1=C(CC(=O)O)c2cc(F)ccc2/C1=C\c1ccc(S(C)(=O)=O)cc1 [EXISULIND],Not Active
8,CC(C)OC(=O)C(C)(C)Oc1ccc(C(=O)c2ccc(Cl)cc2)cc1 [FENOFIBRATE],Not Active
9,OCCN1CCN(CCCN2c3ccccc3Sc3ccc(C(F)(F)F)cc32)CC1 [FLUPHENAZINE],Not Active
10,CN1C2CCCC1CC(NC(=O)c1nn(C)c3ccccc13)C2 (stereo unspecified) [GRANISETRON],Not Active
11,Nc1nc2c(c(=O)[nH]1)N(C=O)C(CNc1ccc(C(=O)N[C@@H](CCC(=O)O)C(=O)O)cc1)CN2 (stereo partly specified) [LEUCOVORIN],Not Active

# Tested on: not listed separately
# Assay: DRUGMATRIX: GABAA, Flunitrazepam, Central radioligand binding (ligand: [3H] Flunitrazepam)
# Assay type: cell membranes, Rattus norvegicus, Wistar, Brain, Membrane
# Details: Not Active = under 50% inhibition at 10 µM
Compound,IC50,Ki
COc1cc(N)nc2[nH]c(-c3ccc(F)cc3)c(-c3ccncc3)c12,Not Active,Not Active
CNS(=O)(=O)Cc1ccc2[nH]cc(CCN(C)C)c2c1,Not Active,Not Active
CCCc1nn(C)c2c(=O)[nH]c(-c3cc(S(=O)(=O)N4CCN(C)CC4)ccc3OCC)nc12,Not Active,Not Active
COc1ccc(/C=C/C(=O)Nc2ccccc2C(=O)O)cc1OC,Not Active,Not Active
CCOC(N)=O,Not Active,Not Active
CC1=C(CC(=O)O)c2cc(F)ccc2/C1=C\c1ccc(S(C)(=O)=O)cc1 [EXISULIND],Not Active,Not Active
Nc1nc2c(c(=O)[nH]1)N(C=O)C(CNc1ccc(C(=O)N[C@@H](CCC(=O)O)C(=O)O)cc1)CN2 (stereo partly specified) [LEUCOVORIN],Not Active,Not Active

# Tested on: not listed separately
# Assay: DRUGMATRIX: Purinergic P2X radioligand binding (ligand: [3H] alpha, beta-Methylene-ATP)
# Assay type: cell membranes, Oryctolagus cuniculus, New Zealand albino, Urinary bladder, Membrane
# Details: Not Active = under 50% inhibition at 10 µM
Compound,IC50,Ki
COc1cc(N)nc2[nH]c(-c3ccc(F)cc3)c(-c3ccncc3)c12,Not Active,Not Active
CNS(=O)(=O)Cc1ccc2[nH]cc(CCN(C)C)c2c1,Not Active,Not Active
CCCc1nn(C)c2c(=O)[nH]c(-c3cc(S(=O)(=O)N4CCN(C)CC4)ccc3OCC)nc12,Not Active,Not Active
COc1ccc(/C=C/C(=O)Nc2ccccc2C(=O)O)cc1OC,Not Active,Not Active
CCOC(N)=O,Not Active,Not Active
CC1=C(CC(=O)O)c2cc(F)ccc2/C1=C\c1ccc(S(C)(=O)=O)cc1 [EXISULIND],Not Active,Not Active
Nc1nc2c(c(=O)[nH]1)N(C=O)C(CNc1ccc(C(=O)N[C@@H](CCC(=O)O)C(=O)O)cc1)CN2 (stereo partly specified) [LEUCOVORIN],Not Active,Not Active

# Molecular target: Tyrosine-protein kinase Fyn (Homo sapiens, UniProt P06241);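 also: enzymatic inhibition of Fyn kinase activity measured with Poly(Glu:Tyr) as the phosphorylation substrate; in other assays of this panel Not Active means under 50% inhibition at 10 µM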
# Sequence (P06241 whole entry): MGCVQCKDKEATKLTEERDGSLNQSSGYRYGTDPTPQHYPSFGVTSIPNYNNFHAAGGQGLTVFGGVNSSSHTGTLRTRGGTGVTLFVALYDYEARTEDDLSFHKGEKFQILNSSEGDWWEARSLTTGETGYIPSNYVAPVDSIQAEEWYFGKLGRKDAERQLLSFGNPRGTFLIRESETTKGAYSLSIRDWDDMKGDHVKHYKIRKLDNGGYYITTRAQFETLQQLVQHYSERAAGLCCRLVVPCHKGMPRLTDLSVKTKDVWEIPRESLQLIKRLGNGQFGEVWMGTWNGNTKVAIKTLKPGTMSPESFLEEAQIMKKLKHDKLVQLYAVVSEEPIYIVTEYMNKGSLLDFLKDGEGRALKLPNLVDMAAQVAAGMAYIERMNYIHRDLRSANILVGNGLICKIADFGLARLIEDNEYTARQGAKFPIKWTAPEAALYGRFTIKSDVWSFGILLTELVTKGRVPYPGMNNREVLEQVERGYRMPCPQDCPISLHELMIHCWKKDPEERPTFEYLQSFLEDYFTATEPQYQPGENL
# Assay: biochemical
# Assay type: cell-based, Insect cells
# Details: insect cells
row,Compound,IC50
1,COc1cc(N)nc2[nH]c(-c3ccc(F)cc3)c(-c3ccncc3)c12,Not Active
2,CNS(=O)(=O)Cc1ccc2[nH]cc(CCN(C)C)c2c1,Not Active
3,CCCc1nn(C)c2c(=O)[nH]c(-c3cc(S(=O)(=O)N4CCN(C)CC4)ccc3OCC)nc12,Not Active
4,COc1ccc(/C=C/C(=O)Nc2ccccc2C(=O)O)cc1OC,Not Active
5,CCOC(N)=O,Not Active
6,CC(=O)Nc1nnc(S(N)(=O)=O)s1 [ACETAZOLAMIDE],Not Active
7,CC1=C(CC(=O)O)c2cc(F)ccc2/C1=C\c1ccc(S(C)(=O)=O)cc1 [EXISULIND],Not Active
8,CC(C)OC(=O)C(C)(C)Oc1ccc(C(=O)c2ccc(Cl)cc2)cc1 [FENOFIBRATE],Not Active
9,CN1C2CCCC1CC(NC(=O)c1nn(C)c3ccccc13)C2 (stereo unspecified) [GRANISETRON],Not Active
10,Nc1nc2c(c(=O)[nH]1)N(C=O)C(CNc1ccc(C(=O)N[C@@H](CCC(=O)O)C(=O)O)cc1)CN2 (stereo partly specified) [LEUCOVORIN],Not Active

# Same assay, conditions: read-out: IC50
row,Compound,IC50 [µM]
1,OCCN1CCN(CCCN2c3ccccc3Sc3ccc(C(F)(F)F)cc32)CC1 [FLUPHENAZINE],7.99

# Molecular target: 5-hydroxytryptamine receptor 1B (Rattus norvegicus, UniProt P28564); also: in other assays of this panel Not Active means under 50% inhibition at 10 µM
# Sequence (P28564 whole entry): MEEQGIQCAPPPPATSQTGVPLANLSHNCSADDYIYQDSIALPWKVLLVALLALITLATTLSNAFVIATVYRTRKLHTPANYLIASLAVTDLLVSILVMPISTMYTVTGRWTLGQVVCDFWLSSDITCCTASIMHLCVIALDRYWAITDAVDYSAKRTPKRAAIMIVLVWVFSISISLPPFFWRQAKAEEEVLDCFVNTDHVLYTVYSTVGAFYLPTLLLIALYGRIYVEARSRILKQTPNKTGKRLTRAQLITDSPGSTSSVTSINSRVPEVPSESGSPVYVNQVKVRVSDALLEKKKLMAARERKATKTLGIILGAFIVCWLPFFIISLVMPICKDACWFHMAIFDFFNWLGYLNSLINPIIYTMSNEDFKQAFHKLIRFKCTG
# Assay: not given
# Assay type: cell membranes, Wistar, Cerebral cortex, Membrane
# Details: not given
row,Compound,IC50
1,COc1cc(N)nc2[nH]c(-c3ccc(F)cc3)c(-c3ccncc3)c12,Not Active
2,CCCc1nn(C)c2c(=O)[nH]c(-c3cc(S(=O)(=O)N4CCN(C)CC4)ccc3OCC)nc12,Not Active
3,COc1ccc(/C=C/C(=O)Nc2ccccc2C(=O)O)cc1OC,Not Active
4,CCOC(N)=O,Not Active
5,CC(=O)Nc1nnc(S(N)(=O)=O)s1 [ACETAZOLAMIDE],Not Active
6,CC1=C(CC(=O)O)c2cc(F)ccc2/C1=C\c1ccc(S(C)(=O)=O)cc1 [EXISULIND],Not Active
7,CC(C)OC(=O)C(C)(C)Oc1ccc(C(=O)c2ccc(Cl)cc2)cc1 [FENOFIBRATE],Not Active
8,CN1C2CCCC1CC(NC(=O)c1nn(C)c3ccccc13)C2 (stereo unspecified) [GRANISETRON],Not Active
9,Nc1nc2c(c(=O)[nH]1)N(C=O)C(CNc1ccc(C(=O)N[C@@H](CCC(=O)O)C(=O)O)cc1)CN2 (stereo partly specified) [LEUCOVORIN],Not Active

# Same assay, conditions: read-out: IC50
row,Compound,IC50 [µM]
1,OCCN1CCN(CCCN2c3ccccc3Sc3ccc(C(F)(F)F)cc32)CC1 [FLUPHENAZINE],1.91

# Same assay, conditions: read-out: Ki
row,Compound,Ki [µM]
1,OCCN1CCN(CCCN2c3ccccc3Sc3ccc(C(F)(F)F)cc32)CC1 [FLUPHENAZINE],0.869
